A word on the IC50: it is the point on the concentration scale where inhibition reaches its midpoint.

“Also recorded” adds a separate entry of the source. Where two headings read alike, the source gives them in different places.

Series [1] is described as follows: Photochemiluminescence (PCL) method, ACL kit. The format is biochemical. Particulars: pure compound; Trolox equivalents; mean ± SE of three experiments. As to the method: (§1) PCL assay, based on the methodology of Popov and Lewin[23], was used to measure the antioxidant activity of synthesized compounds with a Photochem® apparatus (Analytik Jena, Leipzig, Germany) against superoxide anion radicals generated from luminol, a photosensitizer, when exposed to UV light (Double Bore® phosphor lamp, output 351 nm, 3 mWatt/cm^2). The antioxidant activity was measured using ACL (Antioxidant Capacity of Liposoluble substance) kit provided by the manufacturer designed to measure the antioxidant activity of lipophilic compounds[24]. […] The areas under the curves were calculated using the PCLsoft control and analysis software. […] This inhibition was used as a parameter for quantification and related to the decrease in the integral of PCL intensities caused by varying concentrations of Trolox. The observed inhibition of the signal was plotted against the concentration of Trolox added to the assay medium. The concentration of the added tested compounds was such that the generated luminescence during the 180-s sampling interval fell within the limits of the standard curve. The antioxidant assay was carried out in triplicate for each sample, and 20 μL of the diluted compound in HPLC-grade methanol (ACL) was sufficient to correspond to the standard curve.

The nature of series [2]: PCL antioxidant activity of finished formulations. It is filed as biochemical. Particulars: 3% (w/w) compound in O/W formulation. As to the method:
as §1
It was decided to use a standard formulation oil in water (O/W).
In particular, molecules with phenolic hydroxyl in the ortho position on the phenyl ring (4, 5, 9, 10 and 13) had better and higher UVA/UVB ratio and critical wavelength, although they have the SPF value less than lead compound. Formulation containing products 2 and 14, which have a phenolic hydroxyl at the para position on the phenyl ring, have shown good values in terms of SPF, greater UVA protection factor, critical wavelength and also higher UVA/UVB ratio than PBSA, but yet lower than the molecules containing hydroxyl on the phenyl ring in ortho. […] Compound 8 has lower SPF than 3, but higher than PBSA; in comparison with 3, molecules 8 and 12 presented higher UVA/UVB ratio and critical wavelength. Regarding compounds with three hydroxyls on phenyl ring, they have good UVA filtering parameters, their critical wavelengths are the highest and SPF is higher than PBSA for molecule 6, while SPF of 15 is slightly lower and decreases further in molecule 11. Thus, it can be observed that parameters are mainly influenced by the number and position of the hydroxyl groups on the phenyl ring rather than the substituent in the 5-position of benzimidazole. Concomitantly, all formulations were analyzed to assess whether the antioxidant power was maintained. […] In Table 4, the antioxidant activity, measured by PCL method, of finished formulations is reported; as it can be seen results were in agreement with that obtained testing the pure compounds. […] Formulations containing compounds 3, 8 and 12 presented highest antioxidant capabilities; these are followed, but with important decrease in antioxidant capacity, by formulations with compounds 6, […] and 15 that have three hydroxyl moieties on phenyl ring.

Series [3] has as its system NCTC-2544 cells.
Description: (§3) An immortalized, nontumorigenic cell line of human keratinocytes (NCTC-2544) was grown in a DMEM medium (Sigma-Aldrich Milan, Italy), supplemented with 115 units/mL of penicillin G, 115 μg/mL streptomycin, and 10% fetal calf serum (Invitrogen, Milan, Italy). Individual wells of a 96-well tissue culture microtiter plates (Falcon, Becton–Dickinson) were inoculated with 100 μL of complete medium containing 5 × 10^3 NCTC-2544. The plates were incubated at 37 °C in a humidified (5% CO2) incubator for 18 h prior to the experiments.
(§4) After medium removal, 100 μL of the drug solution, dissolved in DMSO and diluted in DMEM medium, was added to each well, incubated at 37 °C for 72 h. Final DMSO concentration never exceeded 0.5%. Cell viability was assayed by the MTT (3–(4,5-dimethylthiazol-2-yl)-2,5 diphenyl tetrazolium bromide) test as previously described by Mosmann[27].
(§5) The tests were conducted using a specific cell line of human keratinocytes (NCTC-2544). To assess cell viability, in the presence of the study compounds, before and after the irradiation, the MTT assay was performed[27]. The cytotoxicity was checked after 72 h from the incubation of the keratinocytes with compounds; moreover, the same experiments were performed in the presence of the parent PBSA.
In series [4] the test system is NCTC-2544 cells. Briefly: Phototoxicity / cellular photoprotection, UVA or UVB irradiation, MTT test. Particulars: for % Cell survival UVA 20 J/cm^2 / % Cell survival UVB 0.5 J/cm^2 / % Cell survival UVB 1 J/cm^2: 50 μM, vs nonirradiated cells (100%), 48 h after irradiation; for viability at 50 µM: Homo sapiens, NCTC-2544, light or radiation study, 48 h; for cell survival in relation to the irradiated control: after UVB irradiation 1 J/cm^2. On the technique in general: Formazan colour is commonly taken as a measure of viable cells.
Description: as §3
Two HPW 125 Philips lamps, mainly emitting at 365 nm, were used for UVA irradiation experiments. The spectral irradiance of the source was 4.0 mWcm^−^2 as measured at the sample level by a Cole-Parmer Instrument Company radiometer (Niles, IL) equipped with a 365-CX sensor. One or two PL-S 9 W/12 Philips lamps (280–370 nm; peak at 315 nm) were used for UVB irradiation experiments. To restrict the incident radiation to the range 305–370 nm, a glass filter (Schott SWG-305) was used. Total energy was detected by the same equipped with a sensor (model CX-312).
After medium removal, 100 μL of the drug solution, dissolved in DMSO and diluted with Hank’s Balanced Salt Solution (HBSS pH =7.2), was added to each well, incubated at 37 °C for 30 min, and then irradiated (20 J/cm^2 for UVA and 0.5 and 1 J/cm^2 for UVB). After irradiation, the solution was replaced with the medium and the plates were further incubated for 48 h. Cell viability was assayed by the MTT [(3–(4,5-dimethylthiazol-2-yl)-2,5 diphenyl tetrazolium bromide)] test as previously described by Mosmann[27].
Molecules were verified for their photocytotoxicity in the same cell line; the cells were treated with 50 μM solutions of compound and after 30 min were irradiated with 20 J/cm^2 UVA or with UVB at two energy amounts: 0.5 J/cm^2 and 1 J/cm^2 UVB. […] After irradiation, the solution was replaced with growth medium and the cells were further incubated for 48 h, and then, cell viability was assessed by MTT assay. […] The phototoxicity of tested molecules was compared with the ratio of cell survival of irradiated keratinocytes without substance (IC = irradiated control).

Series [5] deals with NCTC-2544 cells. The series is described as follows: Cytotoxicity, MTT test, 72 h. Particulars: read-out: IC50 cytotoxicity; NCTC-2544 human keratinocytes, 72 h, MTT.
Description: as §3, §4, §5
Series [6] is described as follows: Photostability of formulations under solar simulator, HPLC. Particulars: 3% formulation; for Residual product (photostability): 2 mg/cm^2, solar simulator 1 h, HPLC. It is filed as physicochemical. As to the method: (§2) HPLC analysis was performed using an Agilent 1100 Series HPLC System equipped with a G1315A DAD, and with a Hydro-RP C18 Synergi 80 Å column (4.6 × 150 mm, 4 μm) from Phenomenex, maintained at 25 °C during all the time of the analysis. The mobile phase consisted of water (0.01 M H3PO4) (solvent A) and acetonitrile (0.01 M H3PO4) (solvent B). • PBSA and 3: the determination was carried out in isocratic condition, A: 91%/B: 9%. Separation was monitored with absorbance detection at λmax of the molecule ±8 nm. The flow rate was 1.0 mL/min. • […]: the determination was carried out in isocratic condition, A: 84%/B: 16%. Separation was monitored with absorbance detection at λmax of the molecule ±8 nm. The flow rate was 1.0 mL/min
The solar simulator emission was maintained at 500 W/m^2. A portion of cosmetic formulation containing the sunscreen molecule (3%, w/w) was transferred onto the bottom of a beaker to gain a cosmetic mount of 2 mg/cm^2 and then was irradiated for 1 h with the solar simulator. After irradiation the beaker was removed and its content quantitatively transferred into a 50 mL calibrated flask with methanol and the remaining sunscreen concentration was determined by HPLC as described above. All samples were protected from light both before and after irradiation, the degree of photodegradation was evaluated by comparing the areas of the irradiated samples, with those of the unirradiated preparations.
Stability and photostability tests were performed only on compounds that as provided with the best antioxidant capacity together with a good photoprotection activity (i.e. 3, and 12). At first, the effective concentration of filtering molecules was verified in the formulation by HPLC. Samples of the formulations (2 mg/cm^2) were spread on a PMMA plate, for each compound including PBSA, and placed under a solar simulator for one hour before repeating HPLC analysis.

Series [7] is classed as physicochemical. As to the method: as §2
Molecules 3 and 12 were challenged in accelerated stability studies against the parent compound. The formulations were submitted to accelerated aging at 40 °C and analyzed at specific intervals, with HPLC.

Series [8] is described as follows: Cytotoxicity, MTT test, 72 h. Particulars: human, NCTC-2544 keratinocytes (immortalized, nontumorigenic).
Description: as §3, §4, §5
[9] abbreviates: read-out: % Cell survival UVA 20 J/cm^2.
Setting [10] is: read-out: % Cell survival UVB 0.5 J/cm^2.
Where [11] appears, read: read-out: % Cell survival UVB 1 J/cm^2.

For the molecule “2-(2,4-Dihydroxy-phenyl)-1H-benzimidazole [Compound 9]”, the PCL in series [1] was 198.53 ± 2.65 μmolTrolox/mmol. Also, the “PCL of finished formulation” value in series [2] was determined as 8.66 ± 0.04 μmol Trolox/g formulation. The molecule also gave an IC50 in the series on NCTC-2544 cells [3] greater than 50 µM. In the series on NCTC-2544 cells [4], the “% Cell survival UVA 20 J/cm^2” value stood at 3.7 ± 0.5%, the “% Cell survival UVB 0.5 J/cm^2” value is recorded as 1.1 ± 0.3% and the “% Cell survival UVB 1 J/cm^2” value is given as 0.5 ± 0.1%.
For “2-(2-Hydroxy-phenyl)-1H-benzimidazole [Compound 10]”, the PCL in series [1] stood at 10.93 ± 0.05 μmolTrolox/mmol. Also, the “PCL of finished formulation” value in series [2] is listed as 0.5 ± 0.02 μmol Trolox/g formulation. Further, the IC50 in the series with NCTC-2544 cells [5] was greater than 50 µM. Further, in the series with NCTC-2544 cells [4], the “% Cell survival UVA 20 J/cm^2” value turned out to be 4.8 ± 0.6%, the “% Cell survival UVB 0.5 J/cm^2” value came out at 19.8 ± 2.4% and the “% Cell survival UVB 1 J/cm^2” value came out at 3.5 ± 0.3%. In addition, in the series on NCTC-2544 cells [4] (NCTC-2544, UVA/UVB irradiation), the “phototoxic effect (cell survival vs irradiated control)” value was “phototoxic effect”.
For `O=C(O)c1ccc2[nH]c(-c3ccc(O)c(O)c3)nc2c1` [Compound 12, 2-(3,4-Dihydroxy-phenyl)-1H-benzimidazole-5-carboxylic acid], the PCL in series [1] was determined as 13174.31 ± 240.68 μmolTrolox/mmol. The “PCL of finished formulation” value in series [2] was 1373.39 ± 19.43 μmol Trolox/g formulation. In series [6], the “Residual product (photostability)” value was 98.4% ± 0.9%. The “degradation rate (photostability)” value in series [6] (solar simulator 1 h) is “less than 2%”. In series [7], the “% of remaining compounds T0” value is on record as 100%, the “% of remaining compounds T7” value is on record as 95,4%, the “% of remaining compounds T14” value is listed as 95,4% and the “% of remaining compounds T21” value is 95,1%. In addition, in series [7], the “% of remaining compounds T28” value is 92,8%, the “% of remaining compounds T35” value is listed as 86,9%, the “% of remaining compounds T49” value is listed as 86,9% and the “% of remaining compounds T63” value is recorded as 86,8%. The molecule also yielded an IC50 at 72 h in series [8] greater than 50 µM. In addition, the viability at 50 µM in the series with NCTC-2544 cells [4] (setting [9]) worked out at 74.3 ± 2%. In addition, the viability at 50 µM in the series with NCTC-2544 cells [4] (setting [10]) is 76.3 ± 3.6%. Moreover, in the series on NCTC-2544 cells [4] (setting [11]), the viability at 50 µM was 64.5 ± 3.5%. Moreover, in the series on NCTC-2544 cells [4], the “cell survival in relation to the irradiated control” value is recorded as “doubled”.
With `O=S(=O)(O)c1ccc2[nH]c(-c3ccccc3)nc2c1` [PBSA, 2-phenyl-1H-benzimidazole-5-sulfonic acid, reference compound], the PCL result in series [1] was “devoided of any activity; also recorded: < LOQ^a”. Moreover, the “PCL of finished formulation” value in series [2] was “<LOQ^b”. Moreover, in series [6], the “Residual product (photostability)” value is given as 96.7% ± 1.8%. Also, in series [7], the “% of remaining compounds T0” value is recorded as 100%, the “% of remaining compounds T7” value is recorded as 99,4%, the “% of remaining compounds T14” value was 98,1% and the “% of remaining compounds T21” value is given as 97,2%. In series [7], the “% of remaining compounds T28” value is 96,4%, the “% of remaining compounds T35” value turned out to be 94%, the “% of remaining compounds T49” value was found to be 92% and the “% of remaining compounds T63” value is on record as 90%. This molecule also displayed an IC50 at 72 h in series [8] greater than 50 µM. For the same molecule, the viability at 50 µM with NCTC-2544 cells [4] (setting [9]) came to 74.5 ± 1.4%. Also, the viability at 50 µM with NCTC-2544 cells [4] (setting [10]) was determined as 75.2 ± 4.5%. Besides, the viability at 50 µM in the series on NCTC-2544 cells [4] (setting [11]) was 64.2 ± 3.1%. In addition, the “cell survival in relation to the irradiated control” value in the series on NCTC-2544 cells [4] is recorded as “doubled”.

The values are drawn from PMC6010047, “Design, synthesis and biological evaluation of novel hydroxy-phenyl-1H-benzimidazoles as radical scavengers and UV-protective agents” (Journal of Enzyme Inhibition and Medicinal Chemistry, 2017).
